Measured values: patent US4997926A, “Deaminase-stable anti-retroviral 2-halo-2',3'-dideoxy” (Scripps Clinic and Research Foundation, priority 1987, dated 1991)
Where two headings read alike, the source gives them in different places.

How the values were obtained:
[1] = biological target: T1, calf intestinal adenosine deaminase (Bos taurus, UniProt P56658); test: Metabolism by adenosine deaminase (spectrophotometric deamination, Lineweaver-Burke); format: biochemical
T1 sequence (P56658 1-363): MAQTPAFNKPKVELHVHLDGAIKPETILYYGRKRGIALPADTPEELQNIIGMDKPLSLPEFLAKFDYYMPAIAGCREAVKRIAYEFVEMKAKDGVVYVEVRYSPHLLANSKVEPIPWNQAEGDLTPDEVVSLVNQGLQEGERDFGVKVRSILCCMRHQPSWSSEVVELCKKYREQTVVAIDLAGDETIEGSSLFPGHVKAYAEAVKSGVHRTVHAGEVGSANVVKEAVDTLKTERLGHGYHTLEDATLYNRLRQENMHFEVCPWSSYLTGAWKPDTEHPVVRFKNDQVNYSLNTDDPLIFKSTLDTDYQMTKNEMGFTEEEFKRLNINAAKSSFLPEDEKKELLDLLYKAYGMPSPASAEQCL
Experimental: ^1 The indicated nucleosides at concentrations from 5-200 uM were
incubated at 18-20° C. with 0.01 EU/ml calf intestinal adenosine
deaminase in 10 mM sodium phosphate, pH 7.5. Deamination was monitored
spectrophotometrically at 265 nanometers (nm) and 250 nm, as described
The individual nucleosides, at concentrations from 5-200 uM in 10 mM sodium phosphate, pH 7.5, were incubated at 18-20 degrees C. with 0.01 EU/ml calf intestinal adenosine deaminase. The change in the optical density at 265 nm and 250 nm was monitored spectrophotometrically.

in vitro = in vitro ADME, human; details: human, cem cell culture medium
Experimental: (§1) Under the same condition, only about 2 percent of [2',3'-^3 H]-2'3'-dideoxyadenosine remained in the medium after 4 hours culture.
(§2) ^1 Human CEM T lymphoblasts at a density of 2 × 10^7
(§3) cells/ml were incubated for 4 hours at 37 degrees C. with either 3 uM
(§4) [8^3 H2-chloro- 2',3dideoxyadenosine, or 2 uM [2',3^3
(§5) H2',3dideoxyadenosine or 2 uM [2',3^3 H2',3dideoxyinosine. Then the
(§6) dideoxynucleosides in the cultures were quantitated after separation by
(§7) HPLC. In these studies, the intracellular dideoxynucleotide content after
(§8) The human T lymphoblastoid cell line, CCRF-CEM, and mutants deficient in either deoxycytidine kinase (clone AraC-8D), or deoxycytidine kinase plus adenosine kinase (clone AraC-8DM10-5) were obtained and propagated as described previously [Foley et al., (1965) Cancer, 18:552-529 and Hershfield et al., (1982) J. Biol. Chem., 257:6380-6386]. For metabolic studies, the cells were cultured in RPMI 1640 medium supplemented with 2 mM L-glutamine and 10 percent fetal bovine serum at a density of 2×10^7 cells/ml in the presence of radiolabelled dideoxynucleosides, as indicated earlier. Some cultures were pre-incubatedfor 30 minutes either with 5 uM 2'-deoxycoformycin or 50 uM coformycin. After 4 hours of incubation the cells were harvested by centrifugation.
(§9) The radioactive compounds in the culture medium were fractionated by thin layer chromatography. Ten microliter (ul) aliquots of medium were spotted directly on cellulose plates and developed with 1 M ammonium acetate pH 7.4. […] The respective spots were cut out and radioactivity was determined by liquid scintillation spectrometry. The identities of the spots were also confirmed by cochromatography of the radioactive counts with authentic compounds on a C18 uBondapak column, that was eluted as described above.

[2] = test system: HIV in deoxycytidine kinase-deficient CEM variant; test: HIV p24 (gag) antigen in deoxycytidine kinase deficient CEM variant; format: cell-based
Source text: Open symbols show the effects of the respective same dideoxynucelosides on HIV replication in a deoxycytidine kinase-deficient CEM variant.
HIV infection of the CEM T lymphoblastoid cell line was monitored by the release of the HIV p24 (gag) protein into the medium, exactly as described previously [Cleveland et al. (1987) J. Clin. Microbiol., 25:416-420 and Fishbein et al. (1981) Biochem. Med., 26:377-386]. The growth inhibiting effects of the nucleosides toward CEM lymphoblasts, and toward the deoxycytidine kinase deficient mutant, were also monitored as described earlier [Carson et al. (1980) Proc. Natl. Acad. Sci. USA, 77:6865-6869].

[3] = test system: HIV in PHA-stimulated lymphocytes; test: HIV-infected PHA-stimulated lymphocytes, antigen ELISA of supernate, positive cultures; format: cell-based; details: 10 uM, ten cultures, ELISA OD490
Experimental: The activities of 2-halo-2',3'-dideoxyadenosine (2-F-,2-Cl- or 2-Br-ddA) derivatives were compared to those of 2-fluoro- and 2-chloro-2',3'-dideoxyinosine (2-F- and 2-Cl-ddI) and 2',3-dideoxyadenosine (ddA) against HIV-infected, antigen ELISA assay described herein.
The PHA-stimulated lymphocytes were suspended in media containing cell-free HIV, and were incubated overnight (about 18 hours). The cells were thereafter pelleted resuspended in a growth medium as pharmacologically acceptable carrier containing one of the above compounds at a 10 uM concentration, or with no added compound as a control, and plated at 10^5 cells per microculture; the medium was also supplemented with interleukin-2. The release of virus into the supernate was measured by ELISA at 4, 8 and 12 days, post-inoculation. Each microculture plate also contained ten virus-free cultures that served as further controls. Ten cell cultures were used for each compound.
Cultures were scored positive if the optical density in the ELISA (OD490) was greater than two standard deviations above the readings for the virus-free cultures. This method is adapted from that of McDougal et al. (1985) J. Immunol. 135:3151.

[4] = test system: deoxycytidine kinase and adenosine kinase deficient CEM T cells (clone AraC-8DM10-5); format: in vitro ADME, human; details: 3 uM, 4 hours
Experimental: ^1 Human CEM T cells, or variants deficient in either deoxycytidine
kinase, or deoxycytidine kinase plus adenosine kinase, were incubated at
density of 5 × 10^7 cells/ml in medium containing 3 uM [8^3
H2-chloro-2',3dideoxyadenosine. After 4 hours, the nucleotides in the
methanolsoluble extracts were determined after separation by HPLC, as
described in the Materials and Methods.
as §8
The cell pellets were washed with Hank's balanced salt solution at 4 degrees C., and extracted with 1 ml 60 percent methanol/water at -20 degrees C. for 10 minutes. Initial studies included 2',3'-dideoxyadenosine5'-triphosphate as an internal recovery marker. The nucleotides were fractionated by high performance liquid chromatography on an Whatman Partisil-10 SAX column, applying a gradient of zero to 100 percent buffer B in buffer A. Buffer A was 7 mM potassium phosphate pH 3.4. Buffer B was 0.5 M potassium phosphate, pH 3.4, one M KCl. The flow rate was 1.5 ml/minute, 1 minute fractions were collected. Buffer A was used alone for the first ten fractions after which elution with Buffer B began and was continued through fraction thirty, after which the eluting buffer was completely Buffer B. The nucleoside was eluted by about fraction six. The monophosphate eluted between about fractions fifteen and eighteen, the diphosphate between about fractions twenty-seven and thirty-two, and the triphosphate eluted between about fractions fifty-one and about sixty-five.

CEM T lymphoblasts = test: in vitro; format: in vitro ADME, human
Experimental: as §1, §2, §3, §4, §5, §6, §7, §8, §9

| SMILES | Relative Efficiency (ratio of Vmax/Km) ([1]; relative efficiency of deamination) | remaining at 4 h, 2 µM (in vitro) | protection from HIV infection, p24 (gag) antigen detection [2] | positive cultures on day 4 [3] | positive cultures on day 8 [3] | positive cultures on day 12 [3] | Relative Efficiency (ratio of Vmax/Km) [1] | Nucleotide Formed, Diphosphate [4] | Nucleotide Formed, Monophosphate [4] | Nucleotide Formed, Triphosphate [4] | Catabolism (CEM T lymphoblasts; Addition none, 4 hours, 37 degrees C., 2-3 uM) | deamination by CEM cells (CEM T lymphoblasts; radiolabelled compound, medium of CEM cell cultures) |
| --- | --- | --- | --- | --- | --- | --- | --- | --- | --- | --- | --- | --- |
| Nc1ncnc2c1ncn2[C@H]1CC[C@@H](CO)O1 [2',3'-dideoxyadenosine, reference compound] | 3.52 | ~2% | equivalent anti-HIV activity | no positives | 100% | 100% |  |  |  |  |  |  |
| Nc1nc(Cl)nc2c1ncn2[C@H]1CC[C@@H](CO)O1 [2-chloro-2',3'-dideoxyadenosine] |  |  |  |  |  |  | 0.04 | 0.7 pmols/10^8 cells/4 hrs | 0.9 pmols/10^8 cells/4 hrs | 2.5 pmols/10^8 cells/4 hrs | 40 pmols/hr 10^8 cells | did not significantly deaminate |
